Assay results published in patent US20100028889A1, “COMPANION DIAGNOSTIC ASSAYS FOR CANCER THERAPY” (ABBOTT LABORATORIES, priority 2006, published 2010).

Columns and labels:
Assay in all cases: sensitivity of SCLC cell line, procedure of Oltersdorf
Type in all cases: cell-based
Conditions in all cases: Homo sapiens, read-out: sensitivity class by EC50
NCI-H524 = system: NCI-H524
Description: (§1) The following SCLC cell lines were obtained from ATCC (Manassis, Va.): NCI-H889, NCI-H1963, NCI-H1417, NCI-H146, NCI-H187, DMS53, NCI-H510, NCI-H209, NCI-H211, NCI-H345, NCI-H524, NCI-H69, DMS79, SHP77, NCI-H1688, NCI-H446, NCI-H740, NCI-H1048, NCI-H82, NCI-H196, SW1271, H69AR, NCI-H526, NCI-H865, NCI-H748, NCI-H711, and DMS114. All cells were cultured in the ATCC recommended media at 37° C. in a humidified atmosphere containing 5% CO2. The following leukemia and lymphoma cell lines were obtained from ATCC (Manassis, Va.): MV-4-11, RS4;11, Loucy, KG-1A, DOHH2, Rs11380, CCRF-HSB-2, CCRF-CEM, CEM/C1, Reh, SUP-B15, MOLT-4, SUDHL4, HL-60, RPMI 8226, A3, Daudi, WSU-NHL, Pfeiffer, Jurkat I 9.2, Jurkat, MEG-01, U-937, K-562, and Raji.
(§2) The 27 SCLC cell lines were tested for sensitivity to ABT-737 using the procedure described in Oltersdorf, T., “An inhibitor of Bcl-2 family proteins induces regression of solid tumours”, Nature, 435: 677-681, 2005, with a cell line classified as sensitive if its EC50<5 μM and as resistant if its EC50>5 µM. The sensitive cell line group consisted of NCI-H889, NCI-H1963, NCI-H1417, NCI-H146, DMS 53, NCI-H187, NCI-H510, NCI-H209, NCI-H345, NCI-H526, NCI-H211, NCI-H865, NCI-H524, NCI-H748, DMS 79, NCI-H69, NCI-H711, SHP 77, NCI-H1688, and the resistant cell line group was comprised of NCI-H446, NCI-H740, NCI-H1048, NCI-H82, NCI-H196, SW1271, DMS 114, and NCI-H69AR.

NCI-H526 = system: NCI-H526
Description: as §1, §2

NCI-H711 = system: NCI-H711
Description: as §1, §2

NCI-H748 = system: NCI-H748
Description: as §1, §2

NCI-H865 = system: NCI-H865
Description: as §1, §2

EC50 (NCI-H524): < 5 µM | EC50 (NCI-H526): < 5 µM | EC50 (NCI-H711): < 5 µM | EC50 (NCI-H748): < 5 µM | EC50 (NCI-H865): < 5 µM
Compound: CN(C)CC[C@H](CSc1ccccc1)Nc1ccc(S(=O)(=O)NC(=O)c2ccc(N3CCN(Cc4ccccc4-c4ccc(Cl)cc4)CC3)cc2)cc1[N+](=O)[O-] [ABT-737, N-(4-(4-((4′-chloro(1,1′-biphenyl)-2-yl)methyl)piperazin-1-yl)benzoyl)-4-(((1R)-3-(dimethylamino)-1-((phenylsulfanyl)methyl)propyl)amino)-3-nitrobenzenesulfonamide]
